{
  "source": "paper PMC6107497",
  "test": "Pd(II)-catalysed intramolecular ortho C(sp2)-H olefination (oxidative Heck-type aryl-alkenyl C-C bond) of peptide aryl/benzyl/thienyl sulfonamides with pendant acrylate or unactivated terminal alkene; Pd(OAc)2 10 mol%, AgOAc 2.0 equiv",
  "details": "1,2-dichloroethane (DCE), 50.0 mM, 80.0 °C, 24.0 h",
  "data": [
    {"smiles": "COC(=O)[C@@H]1Cc2ccc(cc2)OC(=O)C=Cc2ccccc2CS(=O)(=O)N[C@@H](C(C)(C)C)C(=O)NCC(=O)N2CCC[C@H]2C(=O)N1", "note": "[PhCH2SO2-tLeu-Gly-Pro-Tyr(O-acryloyl)-OMe]", "values": [
      {"measurement": "ring closure, isolated yield", "setting": "from C=CC(=O)Oc1ccc(C[C@H](NC(=O)[C@@H]2CCCN2C(=O)CNC(=O)[C@@H](NS(=O)(=O)Cc2ccccc2)C(C)(C)C)C(=O)OC)cc1, 24-membered ring", "value": 72, "unit": "%"}
    ]},
    {"smiles": "COC(=O)[C@@H]1COC(=O)C=Cc2ccsc2S(=O)(=O)N[C@@H](COC(C)(C)C)C(=O)NCC(=O)N2CCC[C@H]2C(=O)N1", "note": "[(thiophene-2-SO2)-Ser(tBu)-Gly-Pro-Ser(O-acryloyl)-OMe]", "values": [
      {"measurement": "ring closure, isolated yield", "setting": "from C=CC(=O)OC[C@H](NC(=O)[C@@H]1CCCN1C(=O)CNC(=O)[C@H](COC(C)(C)C)NS(=O)(=O)c1cccs1)C(=O)OC, 19-membered ring", "value": 53, "unit": "%"}
    ]},
    {"smiles": "COC(=O)[C@@H]1COC(=O)C=Cc2ccccc2CS(=O)(=O)N[C@@H](C(C)(C)C)C(=O)NCC(=O)N1", "note": "[PhCH2SO2-tLeu-Gly-Ser(O-acryloyl)-OMe]", "values": [
      {"measurement": "ring closure, isolated yield", "setting": "from C=CC(=O)OC[C@H](NC(=O)CNC(=O)[C@@H](NS(=O)(=O)Cc1ccccc1)C(C)(C)C)C(=O)OC, 17-membered ring", "value": 58, "unit": "%"}
    ]},
    {"smiles": "COC(=O)[C@@H]1COC(=O)C=Cc2ccccc2CS(=O)(=O)N[C@@H](C(C)(C)C)C(=O)NCC(=O)NCC(=O)NCC(=O)N1", "note": "[PhCH2SO2-tLeu-Gly-Gly-Gly-Ser(O-acryloyl)-OMe]", "values": [
      {"measurement": "ring closure, isolated yield", "setting": "from C=CC(=O)OC[C@H](NC(=O)CNC(=O)CNC(=O)CNC(=O)[C@@H](NS(=O)(=O)Cc1ccccc1)C(C)(C)C)C(=O)OC, 23-membered ring", "value": 34, "unit": "%"}
    ]},
    {"smiles": "COC(=O)[C@@H]1COC(=O)C=Cc2ccccc2CS(=O)(=O)N[C@@H](C(C)(C)C)C(=O)NCC(=O)NCC(=O)N1", "note": "[PhCH2SO2-tLeu-Gly-Gly-Ser(O-acryloyl)-OMe]", "values": [
      {"measurement": "ring closure, isolated yield", "setting": "from C=CC(=O)OC[C@H](NC(=O)CNC(=O)CNC(=O)[C@@H](NS(=O)(=O)Cc1ccccc1)C(C)(C)C)C(=O)OC, 20-membered ring", "value": 45, "unit": "%"}
    ]},
    {"smiles": "COC(=O)[C@@H]1COC(=O)CCC=Cc2ccccc2CS(=O)(=O)N[C@@H](C(C)(C)C)C(=O)NCC(=O)N1", "note": "[PhCH2SO2-tLeu-Gly-Ser(O-pent-4-enoyl)-OMe]", "values": [
      {"measurement": "ring closure, isolated yield", "setting": "from C=CCCC(=O)OC[C@H](NC(=O)CNC(=O)[C@@H](NS(=O)(=O)Cc1ccccc1)C(C)(C)C)C(=O)OC, 19-membered ring", "value": 53, "unit": "%"}
    ]},
    {"smiles": "COC(=O)[C@@H]1COC(=O)C=Cc2ccccc2CS(=O)(=O)N[C@@H](C(C)(C)C)C(=O)N1", "note": "[PhCH2SO2-tLeu-Ser(O-acryloyl)-OMe]", "values": [
      {"measurement": "ring closure, isolated yield", "setting": "from C=CC(=O)OC[C@H](NC(=O)[C@@H](NS(=O)(=O)Cc1ccccc1)C(C)(C)C)C(=O)OC, 14-membered ring", "value": 52, "unit": "%"}
    ]},
    {"smiles": "COC(=O)[C@@H]1Cc2ccc(cc2)OCC=Cc2ccccc2S(=O)(=O)N[C@@H](C(C)(C)C)C(=O)NCC(=O)N2CCC[C@H]2C(=O)N1", "note": "[PhSO2-tLeu-Gly-Pro-Tyr(O-allyl)-OMe]", "values": [
      {"measurement": "ring closure, isolated yield", "setting": "from C=CCOc1ccc(C[C@H](NC(=O)[C@@H]2CCCN2C(=O)CNC(=O)[C@@H](NS(=O)(=O)c2ccccc2)C(C)(C)C)C(=O)OC)cc1, 23-membered ring", "value": 61, "unit": "%"}
    ]},
    {"smiles": "COC(=O)[C@@H]1COC(=O)C=Cc2ccsc2S(=O)(=O)N[C@@H](C(C)(C)C)C(=O)NCC(=O)N2CCC[C@H]2C(=O)N1", "note": "[(thiophene-2-SO2)-tLeu-Gly-Pro-Ser(O-acryloyl)-OMe]", "values": [
      {"measurement": "ring closure, isolated yield", "setting": "from C=CC(=O)OC[C@H](NC(=O)[C@@H]1CCCN1C(=O)CNC(=O)[C@@H](NS(=O)(=O)c1cccs1)C(C)(C)C)C(=O)OC, 19-membered ring", "value": 59, "unit": "%"}
    ]},
    {"smiles": "COC(=O)[C@@H]1COC(=O)C=Cc2ccccc2S(=O)(=O)N[C@@H](C(C)(C)C)C(=O)NCC(=O)N2CCC[C@H]2C(=O)N1", "note": "[PhSO2-tLeu-Gly-Pro-Ser(O-acryloyl)-OMe]", "values": [
      {"measurement": "ring closure, isolated yield", "setting": "from C=CC(=O)OC[C@H](NC(=O)[C@@H]1CCCN1C(=O)CNC(=O)[C@@H](NS(=O)(=O)c1ccccc1)C(C)(C)C)C(=O)OC, 19-membered ring", "value": 67, "unit": "%"}
    ]}
  ]
}
